Measurements from the NIST ThermoML archive (doi:10.1021/je800560b).
Values joined by “and” are separate entries in the source; they are usually repeats but may differ in a detail not shown here. Equal entries are not always repeated. ± gives the expanded uncertainty stated by the source.

Conditions: Liquid

O=[Si] [silicon monooxide]
vapor or sublimation pressure (1301 K): 0.00029 ± 5e-05 kPa and 0.00016 ± 9e-05 kPa | vapor or sublimation pressure (1315 K): 0.0004 ± 7e-05 kPa and 0.00024 ± 6e-05 kPa | vapor or sublimation pressure (1325 K): 0.0005 ± 8e-05 kPa and 0.00032 ± 7e-05 kPa | vapor or sublimation pressure (1335 K): 0.00064 ± 9e-05 kPa and 0.0004 ± 8e-05 kPa | vapor or sublimation pressure (1350 K): 0.00088 ± 0.00013 kPa and 0.00089 ± 0.00014 kPa and 0.00057 ± 0.00012 kPa | vapor or sublimation pressure (1364 K): 0.00123 ± 0.00031 kPa and 0.00082 ± 0.00021 kPa | vapor or sublimation pressure (1374 K): 0.00155 ± 0.00038 kPa and 0.00152 ± 0.00038 kPa and 0.00103 ± 0.00027 kPa | vapor or sublimation pressure (1399 K): 0.0026 ± 0.0007 kPa and 0.00175 ± 0.00048 kPa | vapor or sublimation pressure (1421 K): 0.0042 ± 0.0012 kPa and 0.00287 ± 0.0008 kPa | vapor or sublimation pressure (1433 K): 0.0054 ± 0.0016 kPa and 0.0037 ± 0.0011 kPa | vapor or sublimation pressure (1446 K): 0.0071 ± 0.0022 kPa and 0.0048 ± 0.0016 kPa | vapor or sublimation pressure (1470 K): 0.0116 ± 0.0037 kPa and 0.0114 ± 0.0037 kPa and 0.0079 ± 0.0026 kPa | vapor or sublimation pressure (1495 K): 0.0185 ± 0.0063 kPa and 0.0177 ± 0.006 kPa and 0.0127 ± 0.0043 kPa | vapor or sublimation pressure (1519 K): 0.029 ± 0.01 kPa and 0.027 ± 0.009 kPa and 0.0201 ± 0.0066 kPa
